Assay results taken from patent US10251937B2, “Retro-inverso analogs of spadin display increased antidepressant effects” (MEDINCELL, priority 2014, dated 2019).
Square brackets hold non-standard residues; d marks the D form. Peptide text beside a SMILES is read from it.

Experiments:
C57Bl/6J mice [1] = experiment: Forced Swimming Test (FST) in naive mice; format: in vivo; details: for immobility time, FST, duration of action: 10 naive animals
Experimental: Naïve male C57Bl/6J mice from 7 to 9 weeks old were used in all experiments (Janvier laboratory). Mice were housed 10 animals per cage under a 12-h light/12-h dark cycle (light on at 8:00 am), in a ventilated room at a temperature of 22±1° C. Animals had free access to water and food (A03; SAFE, Augy, France). All experiments were conducted according to policies on the care and use of laboratory animals of the Society for Neuroscience, and also with respect to national laws on animal use. The local Ethics Committee (CIEPAL) approved the experiments.
Stock solutions were prepared of 2 mg/mL (10^-3M) in distilled water, and before injection spadin solution was diluted in NaCl 0.9% to obtain the different concentrations used for treatments. Corticosterone (Sigma-Aldrich, France) was dissolved in drinking water at the concentration of 3.5 mg/L in the presence of 4.5 g/L of beta-cyclodextrin. […] Fluoxetine (Sigma-Aldrich, France) was dissolved in drinking water at the dose of 80 mg/L and administered during 21 days. For i.p. administration, fluoxetine (TEVA Santé, France) was dissolved in NaCl 0.9% at a concentration of 0.75 mg/mL. The amount injected was 3 mg/kg. Spadin and analogues were administered by i.v. injection. For acute treatment, drugs were administered in a single 100 μL bolus 30 min prior to the beginning of the behavioral tests. For subchronic treatment drugs were injected during 4 consecutive days and behavioral tests were performed on day 5, without additional injection.
The animals were individually placed in a non-escapable cylinder (height 30 cm, diameter 15 cm) filled with 15 cm-water at 22±1° C. The trial was conducted for 6 min. The total period of immobility was manually measured during the last 4 min of the test. A mouse was considered immobile when it remained floating with only slight movements to keep its head above water.

C57Bl/6J mice [2] = experiment: Tail-immersion (tail flick) test, thermal pain; format: in vivo; details: 10 μg/kg i.v., 30 min before test, n=10
Experimental: Mice were i.v. injected with 10 μg/kg of spadin in a bolus of 100 μL or 100 μL of a saline solution (0.9% NaCl) 30 min before the beginning of the test. The tail was immersed in a water bath at 48° C. until withdrawal was observed (cut-off time: 30 s). Two separate withdrawal latency time determinations were averaged.

[3] = target: hERG (human Ether a go-go Related Gene) current IKr (Homo sapiens, UniProt Q12809); experiment: Cardiac IKr (hERG) current, whole cell patch clamp in transfected HEK cells
Experimental: HEK-293 native cells were grown in serum in an atmosphere of 95% air/5% CO2 in Dulbecco's modified Eagle's medium supplemented with 10% (v/v) heat inactivated fetal bovine containing 1% (v/v) of penicillin/streptomycin and Glutamax×1. Cells were plated at a density of 20000 cells/35 mm dish and after 24 h cells were transfected using the JetPEI® method (Polyplus, France) with 25 ng/35 mm dish of p-IRES-HERG channel vector. Patch clamp experiments were carried out 48 h after transfection
All electrophysiological recordings were performed in whole cell configuration of the patch clamp technique. Each current was evaluated by using a RK 400 patch clamp amplifier (Axon Instrument, USA), low-pass filtered at 3 kHz and digitized at 10 kHz using a 12-bit analog-to-digital converter digidata (1322 series, Axon Instrument, USA). All current amplitudes are expressed in current densities. Results were expressed as mean±standard error of the mean (SEM). […] The bath solution contained 150 mM NaCl, 5 mM KCl, 3 mM MgCl2, 1 mM CaCl2 and 10 mM HEPES adjusted to pH 7.4 with NaOH. The pipette solution contained 155 mM KCl, 3 mM MgCl2, 5 mM EGTA and 10 mM HEPES adjusted to pH 7.2 with KOH. […] All experiments were performed at room temperature (21-22° c.). Stimulation protocols and data acquisition were carried out using a microcomputer (Dell Pentium) with a commercial software and hardware (pClamp 8.2). Currents were recorded by voltage clamp steps to membrane potentials of −100 to +60 mV in 20 mV steps applied from a holding potential of −80 mV. Duration of depolarization pulses were 0.825 ms, and the pulse cycling rate was 5 sec. […] Cells were continuously superfused with a microperfusion system. […] Tail currents were generated by repolarization to −40 mV. […] IKR currents were activated by voltage clamp steps of membrane potentials from −100 to +100 mV in 10 mV steps applied from a holding potential of +80 mV and tail currents were generated by a repolarization to +40 mV. […] The amplitudes of IKS and IKR currents were calculated at both the end of the first pulse and the peak of the tail pulse.

[4] = 0 mV, in the presence of 10 μM, n=5

Sequence of hERG (human Ether a go-go Related Gene) current IKr (Q12809 whole entry): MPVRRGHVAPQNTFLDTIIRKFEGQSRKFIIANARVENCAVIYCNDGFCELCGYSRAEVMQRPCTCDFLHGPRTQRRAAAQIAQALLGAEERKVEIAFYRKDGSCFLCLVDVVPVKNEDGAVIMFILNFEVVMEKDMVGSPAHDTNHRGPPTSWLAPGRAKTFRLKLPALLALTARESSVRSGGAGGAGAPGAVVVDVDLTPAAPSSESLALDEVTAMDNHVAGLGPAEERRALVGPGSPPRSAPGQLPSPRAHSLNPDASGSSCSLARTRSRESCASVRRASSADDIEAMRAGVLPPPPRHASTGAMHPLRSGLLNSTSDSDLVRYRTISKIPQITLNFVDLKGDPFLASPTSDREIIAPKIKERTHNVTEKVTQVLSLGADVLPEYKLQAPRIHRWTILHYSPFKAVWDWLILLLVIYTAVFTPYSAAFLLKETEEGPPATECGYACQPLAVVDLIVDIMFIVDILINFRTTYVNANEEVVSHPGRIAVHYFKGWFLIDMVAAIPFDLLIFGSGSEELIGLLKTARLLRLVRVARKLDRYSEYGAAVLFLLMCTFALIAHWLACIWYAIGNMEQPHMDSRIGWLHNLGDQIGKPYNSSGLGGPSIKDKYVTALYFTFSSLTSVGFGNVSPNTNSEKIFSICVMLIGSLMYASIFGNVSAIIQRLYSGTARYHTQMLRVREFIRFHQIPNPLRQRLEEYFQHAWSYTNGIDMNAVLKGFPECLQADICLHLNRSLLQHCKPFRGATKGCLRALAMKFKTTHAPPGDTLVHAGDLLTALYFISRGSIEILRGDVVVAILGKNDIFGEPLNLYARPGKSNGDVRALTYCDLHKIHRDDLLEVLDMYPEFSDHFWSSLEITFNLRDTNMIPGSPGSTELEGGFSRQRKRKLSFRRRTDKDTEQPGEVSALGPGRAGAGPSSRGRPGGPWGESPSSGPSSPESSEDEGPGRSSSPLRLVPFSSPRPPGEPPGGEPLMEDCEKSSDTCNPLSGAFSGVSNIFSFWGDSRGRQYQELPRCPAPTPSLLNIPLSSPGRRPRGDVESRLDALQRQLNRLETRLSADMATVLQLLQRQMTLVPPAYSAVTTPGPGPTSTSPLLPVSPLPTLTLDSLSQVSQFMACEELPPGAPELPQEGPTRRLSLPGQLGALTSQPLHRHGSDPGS

CC[C@@H](C)[C@@H](NC(=O)CNC(=O)[C@H](NC(=O)[C@@H](CO)NC(=O)[C@@H](Cc1c[nH]c2ccccc12)NC(=O)CNC(=O)[C@@H](CC(C)C)NC(=O)[C@@H](CCCNC(=N)N)NC(C)=O)C(C)C)C(=O)N1CCC[C@@H]1C(=O)NCC(=O)N[C@H](CO)C(=O)N[C@H](Cc1c[nH]c2ccccc12)C(=O)N[C@H](CCCNC(=N)N)C(=O)N1CCC[C@@H]1C(=O)N[C@H](CC(C)C)C(=O)N1CCC[C@@H]1C(=O)N[C@H](C)C(N)=O [Analog 3, Ac-rlGwsvGipGswrplpa-NH2] (Ac-[dR][dL]G[dW][dS][dV]G[dI][dP]G[dS][dW][dR][dP][dL][dP][dA]-NH2)
immobility time, FST, acute treatment (C57Bl/6J mice [1]; 10 μg/kg acute i.v., measured 30 minutes after injection, n=10): 135.10 ± 8.11 s
immobility time, FST, subchronic treatment (C57Bl/6J mice [1]; 10 μg/kg i.v. once a day for 4 days, test on day 5): 114.9 ± 9.82 s
immobility time, FST, duration of action (C57Bl/6J mice [1]; 1 hour after i.v. injection): 123.4 ± 7.0 s
immobility time, FST, duration of action (C57Bl/6J mice [1]; 16 hours after i.v. injection): 129.6 ± 12.7 s
duration of activity in vivo compared to Analog 8 (C57Bl/6J mice [1]; FST (FIG. 4B)): active for longer duration in vivo
tail withdrawal time (C57Bl/6J mice [2]): 11.32 ± 1.04 s
IKr current density at end of first pulse [3, 4]: 224.48±35.94 pA/pF
IKr tail current density [3, 4]: 212.99±38.38 pA/pF
effect on currents generated by IKr channels expressed in HEK cells ([3]; 10 μM): did not modify currents
